The record followed here is patent US20240034742A1, “DOSING REGIMENS FOR CYCLIN-DEPENDENT KINASE 7 (CDK7) INHIBITORS” (Syros Pharmaceuticals, Inc., priority 2020, published 2024).

In data set [1] the test system is palbociclib and fulvestrant double-resistant ER+BC PDX model (ST941). Nature of the data set: Tumor growth inhibition in palbociclib and fulvestrant double-resistant ER+BC PDX model ST941. The class given is in vivo, mice. To be noted: last day of 28 days dosing, Compound 101 6 mg/kg QD PO, fulvestrant 2.5 mg/kg weekly SC, palbociclib 50 mpk QD PO. On the procedure: Tumor growth inhibition was evaluated in estrogen receptor-positive breast cancer (ER-BC) PDX models selected in vivo for resistance to the CDK4/6 inhibitor palbociclib (ST1799, […]) or resistance to both palbociclib and fulvestrant (ST941, n=1), Dosing was initiated when tumors were 100-200 mm^3.

In data set [2] the test system is patients with advanced solid tumors. Nature of the data set: Phase 1, first-in-human dose escalation study.
Procedure: We focused on safety, tolerability, PK, and PD (as assessed by a PD gene expression marker, POLR2A mRNA) in a 28-day single agent continuous daily dosing regimen and a 3-week-on, I-week-off combination regimen with fulvestrant.
Safety and tolerability, including cycle-1 dose-limiting toxicities (DLTs) were evaluated. Dose-limiting toxicities were graded using the National Cancer Institute Common Toxicity Criteria for Adverse Events (NCI-CTCAE) version 5.0. Serial plasma PK and PD in peripheral blood mononuclear cells (PBMCs) were obtained on days 1 and 15 in cycle 1. […] Tumor responses were assessed per RECIST version 1.1.
For another data set, the system named is HCC70 cell line. Nature of the data set: Inhibition of cell proliferation (CyQUANT Direct Cell Proliferation Assay). The class given is cell-based. To be noted: Homo sapiens, 72-hour proliferation assay. As for the experimental part:
The HCC70 cell line was derived from human TNBC, and we tested representative compounds of the invention, at different concentrations (from […]; 0.5 log serial dilutions), for their ability to inhibit the proliferation of those cells. More specifically, we tested the same compounds tested above for CDK7 selectivity (the structures of which are shown in FIG. 1), and we used the known CDK inhibitors dinaciclib (or N-((1S,3R)-3-((5-chloro-4-(1H-indol-3-yl) pyrimidin-2-yl)amino)cyclohexyl)-5-((E)-4-(dimethylamino)but-2-enamido)picolinamide) and triptolide as positive controls. The cells were grown in ATCC-formulated RPMI-1640 medium (ATCC 30-2001) supplemented with 10% fetal bovine serum (FBS), at 37° C. in a humidified chamber in the presence of 5% CO2. We conducted proliferation assays over a 72-hour time period using a CyQUANT® Direct Cell Proliferation Assay (Life Technologies, Chicago, IL USA) according to the manufacturer's directions and utilizing the reagents supplied with the kit.

The test system of data set [3] is ST390 (modeling pancreatic ductal adenocarcinoma (PDAC)). The experiment in a line: Tumor growth inhibition in PDAC PDX model ST390. To be noted: 6 mg/kg QD PO, over the time examined (~28 days).
Procedure: (§1) In the TNBC, SCLC, and HGSOC models, tumor volume was measured during the treatment period and for an additional 21 days after treatment ceased. […] The same calculations were used for end of study (day 42).
For data set [4], the system named is 12 PDX models representing SCLC, TNBC and HGSOC. Nature of the data set: Tumor growth inhibition in TNBC, HGSOC and SCLC PDX models.
Procedure: as §1
Dosing was initiated when tumors were 150-300 mm^3. […] TGI was calculated on the last day of dosing using the formula: TGI=(Vc1−Vt1)/(Vc0−Vt0), where Vc1 and Vt1 are the mean volumes of control and treated groups at the time of tumor extraction, while Vc0 and Vt0 are the same groups at the start of dosing.
Data set [5] deals with PDX models with oncogenic alterations in the RB pathway and MAPK pathway. The experiment in a line: Anti-tumor activity in PDX models with RB or MAPK pathway alterations. Format: in vivo. To be noted: well-tolerated doses; models from SCLC, TNBC, HGSOC, CRC, PDAC, NSCLC patients.
Where [6] appears, read: single agent and in combination with fulvestrant.

pEC50: −log10 of the molar value.

On to `C[C@]12CC[C@@H]3c4ccc(O)cc4C[C@@H](CCCCCCCCC[S+]([O-])CCCC(F)(F)C(F)(F)F)[C@H]3[C@@H]1CC[C@@H]2O` (some centres unmarked) [fulvestrant], for which the “Tumor growth inhibition (TGI)” value in data set [1] is listed as “no activity”.

As for `CC(=O)c1c(C)c2cnc(Nc3ccc(N4CCNCC4)cn3)nc2n(C2CCCC2)c1=O` [palbociclib], in data set [1], the “Tumor growth inhibition (TGI)” value is “no activity”.

Turning to `CC1(C)CC[C@H](Nc2ncc(C(F)(F)F)c(-c3c[nH]c4c(P(C)(C)=O)c(C#N)ccc34)n2)CN1` [Compound 101, (S)-7-(dimethylphosphoryl)-3-(2-((6,6-dimethylpiperidin-3-yl)amino)-5-(trifluoromethyl)pyrimidin-4-yl)-1H-indole-6-carbonitrile], in data set [2] (3 mg daily), the “pharmacodynamics: POLR2A mRNA in PBMCs and CDK7 occupancy” value was “induced POLR2A elevations associated with regressions in preclinical models and target levels of CDK7 occupancy in patients”. Besides, the dose-limiting events result in data set [2] (cohort receiving 4 mg doses, continuous daily (Grade 3 fatigue; abdominal pain)) was “two”. Also, the dose-limiting events result in data set [2] (cohort receiving 5 mg doses, continuous daily (Grade 3 nausea; thrombocytopenia)) was “two”. In addition, the “patients who developed an SAE (all causality)” value in data set [2] (four of 13 patients) stood at 31%. The “grade of the majority of reported adverse events” value in data set [2] (in vivo) was “low grade”. In addition, in data set [2] (setting [6]), the “accumulation with repeated dosing” value is “minimal accumulation”, the “dose proportionality of PK” value was “approximately dose proportional PK”, the “interpatient variability of PK” value was “moderate to high interpatient variability” and the steady state half-life result was “compatible with once daily dosing”. Besides, in data set [2] (single agent, 3 mg daily, two patients (HR+ breast cancer, colorectal cancer)), the “best response (RECIST 1.1)” value was “stable disease”. The “best response (RECIST 1.1)” value in data set [2] (single agent, 5 mg daily, one patient, esophageal cancer) was “stable disease”. The MTD in data set [2] (single agent, oral, continuous daily dosing cohorts) is 3 mg. The “response (RECIST 1.1)” value in data set [2] (single agent, two patients with ovarian cancer, 1 mg and 3 mg daily) is reported as “progressive disease”. Moreover, the pEC50 in the data set with HCC70 cell line was 8.44. Further, the “Tumor growth inhibition (TGI)” value in data set [3] was 100%. For the same molecule, the “TGI in TNBC (BR5010), SCLC (LU5178) and HGSOC (OV15398) PDX models” value in data set [4] (10 mg/kg QD or 5 mg/kg BID (TNBC), 3 mg/kg BID (SCLC, HGSOC), PO, 21 days, plus 21 days observation) is “deep and sustained TGI, including regressions”. For the same molecule, in data set [4] (12 PDX models, 6 or 10 mg/kg QD or 3 or 5 mg/kg BID PO), the “TGI at the end of the 21-day dosing period in all models” value is listed as “at least 50%”. The “TGI in the subset of models (58%, 7/12) with deep and sustained responses” value in data set [4] (TGI or regression, no tumor regrowth for 21 days after treatment discontinuation) was more than 95%. Further, the “tolerability: body weight” value in data set [4] (all once-daily doses tested, tumor-bearing mice) is “no evident body weight loss”. In data set [4] (tumor-bearing mice), the MTD entry is given as “above 10 mg/kg once daily”. Further, the anti-tumor activity result in data set [5] is “robust anti-tumor activity”.
